Results published in patent publication US9399646B2 (Genentech, Inc., priority 2010, dated 2016).

Experiments:
[1] = test system: MCF-7 cells; assay: Breast cancer cell viability assay (CellTiter-Glo, 5 days); format: cell-based; settings: 5 days' compound exposure; for IC50: Homo sapiens, MCF7, 120 h
Method: MCF-7 cells were adjusted to a concentration of 20,000 cells per mL in RPMI containing 10% FBS and 20 mM HEPES. 16 microliters of the cell suspension (320 cells) was added to each well of a 384 well plate, and the cells were incubated overnight to allow the cells to adhere. The following day an eleven point, serial semilog dilution of each compound was added to the cells in 16 μL at a final concentration ranging from 0.3-0.000003 μM. After 5 days' compound exposure, 16 μL of CellTiter-GLo (Promega, Madison Wis.) was added to the cells the relative luminescence units (RLUs) of each well was determined CellTiter-Glo added to 32 μL of medium without cells was used to obtain a background value. The Percent viability of each sample was determined as follows: (RLU sample-RLU background/RLU untreated cells-RLU background)×100=% viability.

[2] = biological target: T1, ER-α in MCF-7 cells (Homo sapiens, UniProt P03372); assay: Breast cancer cell ER-α in cell western assay (SP1); format: cell-based; set-up: endogenous in cells; host or cells: MCF-7; settings: 4 or 24 hr post compound addition; for Emax: MCF7, SP1 antibody, read-out: ER-α In Cell Western Assay (SP1) Max Response; for DC50: SP1 antibody, read-out: ER-α In Cell Western Assay (SP1) IC50
T1 sequence (P03372 1-595): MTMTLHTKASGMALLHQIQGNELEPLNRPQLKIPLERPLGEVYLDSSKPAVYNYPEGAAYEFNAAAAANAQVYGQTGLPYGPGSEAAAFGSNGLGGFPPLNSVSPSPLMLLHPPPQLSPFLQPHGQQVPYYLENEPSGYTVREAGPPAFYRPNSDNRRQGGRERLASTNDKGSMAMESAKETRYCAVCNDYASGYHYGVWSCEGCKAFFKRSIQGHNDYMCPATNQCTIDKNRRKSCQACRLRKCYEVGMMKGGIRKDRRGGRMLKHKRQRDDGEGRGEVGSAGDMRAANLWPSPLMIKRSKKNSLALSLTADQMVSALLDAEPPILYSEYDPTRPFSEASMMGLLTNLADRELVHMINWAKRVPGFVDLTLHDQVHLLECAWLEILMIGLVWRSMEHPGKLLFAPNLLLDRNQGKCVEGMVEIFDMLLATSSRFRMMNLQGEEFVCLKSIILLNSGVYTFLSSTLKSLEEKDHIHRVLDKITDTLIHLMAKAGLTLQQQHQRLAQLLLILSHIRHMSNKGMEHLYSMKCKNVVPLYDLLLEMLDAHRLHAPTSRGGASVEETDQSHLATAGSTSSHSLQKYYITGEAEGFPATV
Method: MCF-7 cells were adjusted to a concentration of 200,000 cells per mL in RPMI containing 10% charcoal-stripped FBS and 20 mM HEPES. 16 microliters of the cell suspension (3200 cells) was added to each well of a poly-D-lysine 384 well plate, and the cells were incubated overnight to allow the cells to adhere. The following day an eleven point, serial semilog dilution of each compound was added to the cells in 16 μL at a final concentration ranging from 0.3-0.000003 μM. At 4 or 24 hr post compound addition, the cells were fixed (10% formalin in PBS) for 20 minutes. Cells were permeablized in PBS 0.1% Triton and blocked with LICOR blocking buffer (50 μl/well, 90°). The wells were then incubated overnight at 4° C. with SP1 rabbit monoclonal Ab (Thermo Scientific) diluted 1:1000 in LICOR blocking buffer/0.1% Tween-20. Wells which were treated with blocking buffer with Tween but no antibody were used as a background control. Wells were washed with 0.1% Tween-20/PBS and then incubated in goat anti-rabbit IRDye™ 800CW (LICOR Inc.; 1:1000) and DRAQ5 DNA dye (1:2000 for 2 mM stock) diluted in LICOR blocking buffer containing 0.1% Tween-20 and 0.01% SDS for 60 minutes. Cells were washed (50 μl/well, 5′ each) in 0.1% Tween-20/PBS. Plates were scanned on a LICOR Odyssey infrared imaging system. Integrated intensities in the 800 nm channel and 700 nm channel were measured to determine levels of ER and DNA respectively. Percent ER levels were determined as follows: (Integrated intensity 800 nm sample/integrated intensity 700 nm sample)/(Integrated intensity 800 nm untreated cells/integrated intensity 700 nm untreated cells)×100=% ER levels.

Row | Compound | MCF7 Viability Assay Max Response [1] | IC50 [1] [nM] | Emax [2] [%] | DC50 [2] [nM]
1 | CC/C(=C(/c1ccc(/C=C/C(=O)O)cc1)c1ccc2scnc2c1)c1ccc(F)cc1Cl [Compound 275, (E)-3-(4-((E)-1-(Benzo[d]thiazol-5-yl)-2-(2-chloro-4-fluorophenyl)but-1-en-1-yl)phenyl)acrylic acid] | ++ (++ = a single % value ≧ 40%) | ≤ 100 | ≥ 40 | ≤ 100
2 | CC/C(=C(/c1ccc(/C=C/C(=O)O)cc1)c1ccc2scnc2c1)c1cscc1C [Compound 276, (E)-3-(4-((E)-1-(Benzo[d]thiazol-5-yl)-2-(4-methylthiophen-3-yl)but-1-en-1-yl)phenyl)acrylic acid] | ++ (++ = a single % value ≧ 40%) | ≤ 100 | ≥ 40 | ≤ 100
3 | CC/C(=C(/c1ccc(/C=C/C(=O)O)cc1)c1ccc2[nH]ncc2c1)c1cnccn1 [Compound 219, (E)-3-(4-((E)-1-(1H-Indazol-5-yl)-2-(pyrazin-2-yl)but-1-en-1-yl)phenyl)acrylic acid] | ++ (++ = a single % value ≧ 40%) | > 100 | ≥ 40 | > 100
4 | CC/C(=C(/c1ccc(/C=C/C(=O)O)cc1)c1ccc2[nH]ncc2c1)c1cncnc1 [Compound 220, (E)-3-(4-((E)-1-(1H-Indazol-5-yl)-2-(pyrimidin-5-yl)but-1-en-1-yl)phenyl)acrylic acid] | + (+ = a single % value < 40%) | > 100 | < 40 | > 100
5 | CC/C(=C(/c1ccc(/C=C/C(=O)O)cc1)c1coc2ccccc12)c1ccc(F)cc1Cl [Compound 170, (E)-3-(4-((E)-1-(Benzofuran-3-yl)-2-(2-chloro-4-fluorophenyl)but-1-en-1-yl)phenyl)acrylic acid] | ++ (++ = a single % value ≧ 40%) | ≤ 100 | ≥ 40 | ≤ 100
6 | CC/C(=C(/c1ccc(/C=C/C(=O)O)cc1)c1ccc2[nH]ncc2c1)c1ccnc(OC)c1 [Compound 236, (E)-3-(4-((E)-1-(1H-Indazol-5-yl)-2-(2-methoxypyridin-4-yl)but-1-en-1-yl)phenyl)acrylic acid] | ++ (++ = a single % value ≧ 40%) | ≤ 100 | ≥ 40 | ≤ 100
7 | CC/C(=C(/c1ccc(/C=C/C(=O)O)cc1)c1ccc2ncsc2c1)c1ccccc1 [Compound 130, (E)-3-(4-((E)-1-(Benzo[d]thiazol-6-yl)-2-phenylbut-1-en-1-yl)phenyl)acrylic acid] | ++ (++ = a single % value ≧ 40%) | > 100 | ≥ 40 | > 100
8 | CC/C(=C(/c1ccc(/C=C/C(=O)O)cc1)c1ccc2[nH]ncc2c1)c1cccc(Oc2ccncc2C(F)(F)F)c1 [Compound 372, (E)-3-(4-((E)-1-(1H-Indazol-5-yl)-2-(3-((3-(trifluoromethyl)pyridin-4-yl)oxy)phenyl)but-1-en-1-yl)phenyl)acrylic acid] | ++ (++ = a single % value ≧ 40%) | > 100 | ≥ 40 | ≤ 100
9 | CC/C(=C(/c1ccc(/C=C/C(=O)N(C)OC)cc1)c1ccc2[nH]ncc2c1)c1ccc(F)cc1Cl [Compound 422, (E)-3-(4-((E)-2-(2-Chloro-4-fluorophenyl)-1-(1H-indazol-5-yl)but-1-en-1-yl)phenyl)-N-methoxy-N-methylacrylamide] | ++ (++ = a single % value ≧ 40%) | ≤ 100 | ≥ 40 | ≤ 100
10 | O=C(O)/C=C/c1ccc(/C(=C(/CCF)c2ccncc2Cl)c2ccc3[nH]ncc3c2)cc1 [Compound 230, (E)-3-(4-((E)-2-(3-Chloropyridin-4-yl)-4-fluoro-1-(1H-indazol-5-yl)but-1-en-1-yl)phenyl)acrylic acid] | ++ (++ = a single % value ≧ 40%) | ≤ 100 | ≥ 40 | ≤ 100
11 | CC/C(=C(/c1ccc(/C=C/C(=O)O)cc1)c1ccc2[nH]ncc2c1)c1sccc1C [Compound 241, (E)-3-(4-((E)-1-(1H-Indazol-5-yl)-2-(3-methylthiophen-2-yl)but-1-en-1-yl)phenyl)acrylic acid] | ++ (++ = a single % value ≧ 40%) | ≤ 100 | ≥ 40 | ≤ 100
12 | CC/C(=C(/c1ccc(/C=C/C(=O)NO)cc1)c1ccc2[nH]ncc2c1)c1ccccc1 [Compound 418, (E)-3-(4-((E)-1-(1H-Indazol-5-yl)-2-phenylbut-1-en-1-yl)phenyl)-N-hydroxyacrylamide] | ++ (++ = a single % value ≧ 40%) | ≤ 100 | ≥ 40 | ≤ 100
13 | CC/C(=C(/c1ccc(/C=C/C(=O)O)cc1)c1ccc2[nH]ncc2c1)c1ccc(OCC(=O)O)cc1 [Compound 348, (E)-3-(4-((E)-2-(4-(Carboxymethoxy)phenyl)-1-(1H-indazol-5-yl)but-1-en-1-yl)phenyl)acrylic acid] | + (+ = a single % value < 40%) | > 100 | < 40 | > 100
14 | CC/C(=C(/c1ccc(/C=C/C(=O)O)cc1)c1ccc2[nH]ncc2c1)c1cccc(-n2cccn2)c1 [Compound 252, (E)-3-(4-((E)-2-(3-(1H-Pyrazol-1-yl)phenyl)-1-(1H-indazol-5-yl)but-1-en-1-yl)phenyl)acrylic acid] | ++ (++ = a single % value ≧ 40%) | > 100 | ≥ 40 | ≤ 100
15 | Cc1cscc1/C(CC(C)C)=C(\c1ccc(/C=C/C(=O)O)cc1)c1ccc2[nH]ncc2c1 [Compound 257, (E)-3-(4-((E)-1-(1H-Indazol-5-l)-4-methyl-2-(4-methylthiophen-3-yl)pent-1-en-1-yl)phenyl)acrylic acid] | ++ (++ = a single % value ≧ 40%) | ≤ 100 | ≥ 40 | ≤ 100
16 | CC/C(=C(/c1ccc(/C=C/C(=O)O)cc1)c1ccc2[nH]ncc2c1)c1ccc(-c2cnsc2)cc1 [Compound 395, (E)-3-(4-((E)-1-(1H-Indazol-5-yl)-2-(4-(isothiazol-4-yl)phenyl)but-1-en-1-yl)phenyl)acrylic acid] | ++ (++ = a single % value ≧ 40%) | > 100 | ≥ 40 | ≤ 100
17 | Cc1cscc1/C(=C(\c1ccc(/C=C/C(=O)O)cc1)c1ccc2scnc2c1)C1CCC1 [Compound 279, (E)-3-(4-((E)-1-(Benzo[d]thiazol-5-yl)-2-cyclobutyl-2-(4-methylthiophen-3-yl)vinyl)phenyl)acrylic acid] | ++ (++ = a single % value ≧ 40%) | ≤ 100 | ≥ 40 | ≤ 100
18 | CC/C(=C(/c1ccc(/C=C/C(=O)NS(C)(=O)=O)cc1)c1ccc2[nH]ncc2c1)c1ccc(F)cc1Cl [Compound 408, (E)-3-(4-((E)-2-(2-Chloro-4-fluorophenyl)-1-(1H-indazol-5-yl)but-1-en-1-yl)phenyl)-N-(methylsulfonyl)acrylamide] | ++ (++ = a single % value ≧ 40%) | ≤ 100 | ≥ 40 | ≤ 100
